Experimental data reported in publication PMC7804859, “A metabolically stable apelin-17 analog decreases AVP-induced antidiuresis and improves hyponatremia” (Nature Communications, 2021).
Several values for one entry are separate records, joined by “and”; a condition that tells them apart may be missing. Equal entries are not always repeated.

Experiments:
[1] = molecular target: T1, human V2-R (Homo sapiens, UniProt P30518); assay: cAMP production in HEK-293 T cells expressing the human V2-R (HTRF); assay type: cell-based; conditions: FSK 5.10-6M
T1 construct: host or cells: HEK-293T cells, transient transfection
Method: 152 Supplementary Methods
154 We quantified cAMP production with the cAMP dynamic 2 assay kit (Cisbio Bioassays,
155 Codolet, France), which is based on homogeneous time-resolved fluorescence (HTRF)
156 technology, as previously described 1. […]
For cells expressing the V2-R, HEK-
160 293T cells were transiently transfected with the human V2-R (cDNA Resource Center), after
161 48h, 4000 cells/well were added to white 384-well optiplates and stimulated either with 5
Cells were then lysed, and
165 cAMP levels were determined in accordance with the kit manufacturer’s instructions.
166 Stimulation was performed in stimulation buffer-IBMX (SBI) (Hank’s balanced salt solution
167 (HBSS-Life Technology), 5 mmol/l Hepes, 0.1% BSA stabilizer (Perkin Elmer), 1 mmol/l
168 isobutylmethylxanthine (IBMX, Sigma Aldrich, pH 7.4)). […]

[2] = tested on: anti-K17F serum; conditions: ref De Mota et al, PNAS, 2004; cited from earlier work
Method: The columns were then treated as described in 207 the paragraph above.

[3] = tested on: hyponatremic rats (AVP 30 ng/h); assay: Effects of LIT01-196 and tolvaptan in rat model of AVP-induced hyponatremia; assay type: in vivo
Method: Meloxicam was administered postoperatively for analgesia. Animals were then individually housed in metabolic cages (Techniplast), and given a semi-liquid diet consisting of 25 ml Gel-Diet Breeding-10 (SAFE, Augy, France) mixed with 25 ml tap water per day, with water available ad libitum. Animal weight, water, and food consumption were measured daily. Urine was collected daily, urinary electrolytes (Na^+, K^+, Cl^−) were determined with an ISE 3000 (Caretium Medical Instruments, Shenzhen, China) and urinary osmolality was measured with a Cryobasic 1 osmometer (Astori Tecnica, Poncarale, Italy). Blood samples were collected on ice, before implantation of the osmotic minipump, and before drug administration, under isoflurane anesthesia, from the tail vein (4 µl of lithium heparinate (1600 IU/ml) for 400 µl of blood). The blood samples were immediately centrifuged (4 °C, 2600 × g, 20 min), and plasma electrolyte (Na^+, K^+, Cl^−) levels were quantified with an ISE 3000. On the last day of the experiment, blood was also collected on ice by intracardiac puncture. This blood sample was collected into lithium heparinate under isoflurane anesthesia; plasma electrolyte levels were determined as described above and the animals were immediately killed by carbon monoxide inhalation.

[4] = tested on: control rats; assay: Plasma AVP and apelin-IR levels in control rats (RIA); assay type: in vivo, rat; parameters: Apelin / AVP: unit not given here
Method: (§1) 187 Apelin radioimmunoassay
(§2) 189 until use for apelin RIA.
(§3) The supernatants were collected and
(§4) The samples were dried and dissolved in
(§5) 201 centrifuged (17000 x g, 4°C, 20 min). The supernatant (4 ml) was collected, and mixed with
(§6) The columns were then treated as described in
(§7) Samples (0.1ml) w ere mixed with 125I-
(§8) 212 used this radioligand instead of [Glp65, Nle75, Tyr77] [125I]-apelin13 since the substitution of
(§9) 214 derivatives as described previously by 3,4.
(§10) 216 incubated for 10 min at room temperature.
(§11) This antiserum identified the apelin present in the
(§12) Most of the apelin in human plasma was
(§13) 252 TechMedILL platfor m (Illkirch) reviewed and approved by the agriculture ministry regulating
(§14) 256 Male Sprague-Dawley rats were killed by decapitation, and trunk blood was collected on ice
(§15) 257 (into 50 µl of 0.3M EDTA (pH 7.4) per 1 ml of blood). Samples were centrifuged (2,600 x g,
(§16) 258 4°C, 20 min), and the resulting plasma was split into 500 µl aliquots, to which we added 168
(§17) 259 µl of 3N HCl before storage at -80°C. The AVP RIA was performed as previously described
(§18) 260 5, using a specific AVP-[Arg8] antibody (final dilution, 1/4.5) and [125I]-(Tyr2Arg8)-AVP
(§19) 261 (2200 Ci/mmol, Perkin-Elmer, Billerica, MA; 15000 dpm) as a tracer. […]

[5] = tested on: patients; conditions: cited from earlier work
[6] = tested on: normonatremic Sprague-Dawley rats; assay: Effects of s.c. administration on metabolic parameters in normonatremic rats; assay type: in vivo, rat
[7] = tested on: hyponatremic rats; assay: Plasma AVP and apelin-IR levels in hyponatremic rats (RIA); assay type: in vivo, rat
Method: as §1, §2, §3, §4, §5, §6, §7, §8, §9, §10, §11, §12, §13, §14, §15, §16, §17, §18, §19

[8] = 900 nmol/kg SC (tolvaptan 0.4.SC [sic]), normonatremic rats, single animals

T1 sequence (P30518 whole entry): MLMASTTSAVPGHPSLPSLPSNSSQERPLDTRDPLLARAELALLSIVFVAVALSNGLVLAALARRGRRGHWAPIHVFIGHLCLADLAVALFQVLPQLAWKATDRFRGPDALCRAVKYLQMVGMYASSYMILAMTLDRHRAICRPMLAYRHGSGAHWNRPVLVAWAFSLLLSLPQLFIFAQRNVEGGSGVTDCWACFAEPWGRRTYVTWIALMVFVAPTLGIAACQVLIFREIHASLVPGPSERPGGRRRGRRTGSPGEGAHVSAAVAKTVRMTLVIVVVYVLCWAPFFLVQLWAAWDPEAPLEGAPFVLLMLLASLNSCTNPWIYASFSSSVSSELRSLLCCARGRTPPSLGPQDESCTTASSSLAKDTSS

Q: Which “cAMP production, Value (Fig 2B)” value ([1]; experiment 1) does the source give for `C=C[C@@]1(C)CC(=O)[C@]2(O)[C@@]3(C)[C@@H](O)CCC(C)(C)[C@@H]3[C@H](O)[C@H](OC(C)=O)[C@@]2(C)O1` [FSK] here?
A: The value was 139.382.

Q: What about the “cAMP production, Value (Fig 2B)” value ([1]; experiment 2) of the same compound?
A: The value was 85.1109.

Q: And the “cAMP production, Value (Fig 2B)” value ([1]; experiment 3)?
A: The value was 116.78.

Q: And the “cAMP production, Value (Fig 2B)” value ([1]; experiment 4)?
A: Its value is 128.996.

Q: Which “cross-reactivity with the apelin antiserum” value [2] does the source give for neuropeptide Y here?
A: The value was “Negligible cross-reactivity”.

Q: With “angiotensin III (RVYIHPF; Angiotensin-3; UniProt P01019 26-32, looked up)” as the compound, how does the “cross-reactivity with the apelin antiserum” value [2] read?
A: Its value is “Negligible cross-reactivity”.

Q: Which results are given for `Cc1ccccc1C(=O)Nc1ccc(C(=O)N2CCCC(O)c3cc(Cl)ccc32)c(C)c1` (stereo not shown) [tolvaptan, reference compound]?
A: increase in urine output 24 h after s.c. administration ([3]; 900 nmol/kg s.c., rats receiving 30 ng/h AVP and liquid diet): 9.5 ± 2.9 ml/24 h/100 g; increase in urine output 24 h after s.c. administration ([3]; 6700 nmol/kg s.c., rats receiving 30 ng/h AVP): 27 ± 9.0 ml/24 h/100 g; plasma apelin-IR levels versus control rats ([4]; 3 h after 6700 nmol/kg s.c.): similar; plasma apelin/AVP ratio versus saline ([4]; 3 h after 6700 nmol/kg s.c.): similar; plasma AVP levels, higher than in animals receiving saline ([4]; 3 h after s.c., tolvaptan 6700 nmol/kg, LIT01-196 900 nmol/kg): 147%; AVP ([4]; plasma AVP, Tolvaptan 6700 nmol/kg SC, individual animals (Fig. S4F source data)): 46.8225 and 42.0318 and 57.2512 and 20.2981 and 21.5164 and 46.682; Apelin ([4]; plasma apelin-IR, Tolvaptan 6700 nmol/kg SC, individual animals (Fig. S4E source data)): 782.319 and 460.81 and 574.125 and 749.499 and 564.407 and 576.365; apelinAVPratio ([4]; plasma apelin/AVP ratio, Tolvaptan 6700 nmol/kg SC, individual animals (Fig. S4G source data)): 16.7082 and 10.9634 and 10.0282 and 36.9246 and 26.2315 and 12.3466; patients with overly rapid sodium correction ([5]; 7.5 mg per day, hyponatremia patients, baseline serum sodium <125 mmol/l): 23%; patients with ADPKD discontinuing treatment for aquaresis-related events [5]: 8%; Urine osmolality (3 hours) [6, 8]: 400 and 540 and 520 and 404 and 412; Urine osmolality (6 hours) [6, 8]: 484 and 656 and 532 and 492 and 496; Urine osmolality (24 hours) [6, 8]: 772 and 1396 and 1244 and 1552 and 1324 and 1300 and 1592 and 1040 and 1416 and 1184 and 2300 and 1048; increase in water intake ([6]; 900 nmol/kg s.c., 24 h): 37%; increase in water intake to food intake ratio ([6]; 900 nmol/kg s.c., 24 h): 24%; increase in 24-h urine output relative to saline ([6]; 900 nmol/kg s.c., normonatremic rats): 77%; decrease in urine osmolality ([6]; 900 nmol/kg s.c., normonatremic rats, 24 h): 40%; Sodium excretion fraction ([6]; LIT01-196 900 nmol/kg, tolvaptan 6700 nmol/kg s.c., 24 h): not changed; Water excretion fraction ([6]; Tolvaptan 6700 nmol/kg SC, individual animals (Fig. S4C source data)): 0.8154 and 1.026 and 2.311 and 0.5818 and 0.7955 and 0.7; Sodium excretion fraction ([6]; Tolvaptan 6700 nmol/kg SC, individual animals (Fig. S4D source data)): 0.6016 and 0.6502 and 0.5049 and 0.3349 and 0.4657 and 0.6432; Water to food ratio ([6]; normonatremic rats, 900 nmol/kg SC, individual animal values (source data Fig. 4L)): 1.532 and 1.653 and 1.89 and 1.641 and 1.608; plasma AVP and apelin levels versus AVP + saline ([7]; 6700 nmol/kg s.c., 3 h): similar; Plasma AVP ([7]; AVP 30 ng/h rats, individual animals (Fig. 6A source data)): 39.2062 and 41.6048 and 44.1878 and 29.3355 and 51.7522 and 30.996 and 44.9258 and 45.018; Plasma apelin ([7]; AVP 30 ng/h rats, individual animals (Fig. 6B source data)): 312 and 375 and 335 and 404 and 283 and 315 and 384 and 365; Apelin to AVP ratio ([7]; AVP 30 ng/h rats, individual animals (Fig. 6C source data)): 7.958 and 9.013 and 7.581 and 13.7717 and 5.468 and 10.1626 and 8.547 and 8.108
